{
  "source": "ChEMBL document CHEMBL4715826",
  "about": "“Selective PPARδ Modulators Improve Mitochondrial Function: Potential Treatment for Duchenne Muscular Dystrophy (DMD)” (ACS Med Chem Lett, 2018)",
  "key": {"[1]": {"assay": "Half life in CD-1 mouse at 3 mg/kg, iv", "assay_type": "ADME, organism-based", "conditions": "in vivo"}, "[2]": {"assay": "Selectivity index, ratio of EC50 for transactivation of GAL4-fused PPARalpha LBD (unknown origin) transfected in CV1 cells to EC50 for transactivation of GAL4-fused human PPARdelta LBD (128 to residue at C-terminus) transfected in African green monkey CV1 cells by luciferase reporter gene assay"}, "[3]": {"molecular_target": "T1, Peroxisome proliferator-activated receptor alpha (Homo sapiens, UniProt Q07869)", "T1 sequence (Q07869 whole entry)": "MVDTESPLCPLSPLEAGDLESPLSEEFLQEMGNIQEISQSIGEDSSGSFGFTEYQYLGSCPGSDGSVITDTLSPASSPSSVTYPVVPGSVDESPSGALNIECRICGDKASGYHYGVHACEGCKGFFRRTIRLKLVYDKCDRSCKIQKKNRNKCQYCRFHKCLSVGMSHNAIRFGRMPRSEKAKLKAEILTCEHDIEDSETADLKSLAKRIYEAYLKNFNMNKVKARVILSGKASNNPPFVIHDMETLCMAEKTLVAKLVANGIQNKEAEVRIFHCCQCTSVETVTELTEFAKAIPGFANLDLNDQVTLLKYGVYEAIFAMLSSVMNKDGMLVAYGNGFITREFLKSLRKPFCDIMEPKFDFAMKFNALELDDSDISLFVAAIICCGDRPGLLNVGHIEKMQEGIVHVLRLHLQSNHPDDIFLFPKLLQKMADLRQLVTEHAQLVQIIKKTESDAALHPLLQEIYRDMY", "assay": "Modulator activity at GAL4-fused human PPARalpha LBD (unknown origin) transfected in African green monkey CV1 cells assessed as receptor transactivation by luciferase reporter gene assay", "assay_type": "cell-based, CV-1"}, "[4]": {"molecular_target": "T2, Peroxisome proliferator-activated receptor gamma (Homo sapiens, UniProt P37231)", "T2 sequence (P37231 whole entry)": "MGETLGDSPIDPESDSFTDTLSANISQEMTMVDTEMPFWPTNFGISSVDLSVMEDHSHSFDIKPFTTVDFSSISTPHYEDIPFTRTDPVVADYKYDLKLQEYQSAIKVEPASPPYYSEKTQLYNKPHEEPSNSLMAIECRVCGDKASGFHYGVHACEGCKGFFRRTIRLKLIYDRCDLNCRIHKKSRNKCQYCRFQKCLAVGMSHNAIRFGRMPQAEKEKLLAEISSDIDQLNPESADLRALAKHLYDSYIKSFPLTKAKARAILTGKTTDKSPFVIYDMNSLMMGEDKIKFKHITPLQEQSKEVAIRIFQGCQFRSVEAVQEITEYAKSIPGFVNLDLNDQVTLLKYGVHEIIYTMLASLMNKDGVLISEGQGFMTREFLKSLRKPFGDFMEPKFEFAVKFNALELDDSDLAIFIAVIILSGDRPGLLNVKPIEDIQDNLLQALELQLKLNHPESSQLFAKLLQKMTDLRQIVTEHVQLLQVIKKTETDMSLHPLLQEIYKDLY", "assay": "Modulator activity at GAL4-fused human PPARgamma LBD (unknown origin) transfected in African green monkey CV1 cells assessed as receptor transactivation by luciferase reporter gene assay", "assay_type": "cell-based, CV-1"}, "[5]": {"assay": "Clearance in CD-1 mouse at 3 mg/kg, iv", "assay_type": "ADME, organism-based", "conditions": "in vivo"}, "[6]": {"assay": "AUC in CD-1 mouse at 3 mg/kg, iv", "assay_type": "ADME, organism-based", "set-up": "dose 3 mg/kg", "conditions": "in vivo"}, "[7]": {"molecular_target": "T3, Peroxisome proliferator-activated receptor delta (Homo sapiens, UniProt Q03181)", "T3 sequence (Q03181 whole entry)": "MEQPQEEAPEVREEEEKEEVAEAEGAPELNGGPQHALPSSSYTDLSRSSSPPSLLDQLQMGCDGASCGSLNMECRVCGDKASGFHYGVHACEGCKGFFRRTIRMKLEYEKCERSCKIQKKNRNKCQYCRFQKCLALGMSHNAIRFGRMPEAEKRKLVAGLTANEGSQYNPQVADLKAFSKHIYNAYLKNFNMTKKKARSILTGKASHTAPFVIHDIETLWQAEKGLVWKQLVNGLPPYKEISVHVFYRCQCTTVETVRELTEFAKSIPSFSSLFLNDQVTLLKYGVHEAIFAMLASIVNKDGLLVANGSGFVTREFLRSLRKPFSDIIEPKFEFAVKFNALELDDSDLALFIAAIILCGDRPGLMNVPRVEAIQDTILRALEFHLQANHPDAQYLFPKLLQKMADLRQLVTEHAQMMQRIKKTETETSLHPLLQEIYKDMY", "description": "Modulator activity at GAL4-fused human PPARdelta LBD (128 to residue at C-terminus) transfected in African green monkey CV1 cells assessed as receptor transactivation by luciferase reporter gene assay"}},
  "data": [
    {"smiles": "C/C(=C\\COc1ccccc1Cc1c(C)n[nH]c1-c1ccc(-c2ccco2)cc1)CCC(=O)O", "values": [
      {"measurement": "half-life", "setting": "[1]", "result": 24, "unit": "min"},
      {"measurement": "Ratio EC50", "setting": "[2]", "result": ">1000"},
      {"measurement": "EC50", "setting": "[3]", "result": 13.1, "unit": "µM"},
      {"measurement": "EC50", "setting": "[4]", "result": 5.53, "unit": "µM"},
      {"measurement": "clearance", "setting": "[5]", "result": 130, "unit": "mL/min/kg"},
      {"measurement": "AUC", "setting": "[6]", "result": 380, "unit": "ng·h/mL"}
    ]},
    {"smiles": "C/C(=C\\COc1ccccc1Cc1c(C)nnn1-c1ccc(-c2ccco2)cc1)CCC(=O)O", "values": [
      {"measurement": "half-life", "setting": "[1]", "result": 12, "unit": "min"},
      {"measurement": "Ratio EC50", "setting": "[2]", "result": ">1000"},
      {"measurement": "EC50", "setting": "[3]", "result": 16.8, "unit": "µM"},
      {"measurement": "EC50", "setting": "[4]", "result": "> 10", "unit": "µM"},
      {"measurement": "clearance", "setting": "[5]", "result": 225, "unit": "mL/min/kg"},
      {"measurement": "AUC", "setting": "[6]", "result": 220, "unit": "ng·h/mL"},
      {"measurement": "EC50", "setting": "[7]", "result": 0.0084, "unit": "µM"}
    ]},
    {"smiles": "C/C(=C\\COc1ccccc1Cc1c(-c2ccc(-c3ccco3)cc2)noc1C)CCC(=O)O", "values": [
      {"measurement": "half-life", "setting": "[1]", "result": 12, "unit": "min"},
      {"measurement": "Ratio EC50", "setting": "[2]", "result": ">1000"},
      {"measurement": "EC50", "setting": "[3]", "result": 5.84, "unit": "µM"},
      {"measurement": "EC50", "setting": "[4]", "result": "> 10", "unit": "µM"},
      {"measurement": "clearance", "setting": "[5]", "result": 180, "unit": "mL/min/kg"},
      {"measurement": "AUC", "setting": "[6]", "result": 280, "unit": "ng·h/mL"},
      {"measurement": "EC50", "setting": "[7]", "result": 0.0015, "unit": "µM"}
    ]},
    {"smiles": "Cc1cnc(-c2ccc(-c3ccco3)cc2)n1Cc1ccccc1OCCC[C@@H](C)CC(=O)O", "values": [
      {"measurement": "half-life", "setting": "[1]", "result": 84, "unit": "min"},
      {"measurement": "EC50", "setting": "[3]", "result": "> 100", "unit": "µM"},
      {"measurement": "EC50", "setting": "[4]", "result": "> 10", "unit": "µM"},
      {"measurement": "clearance", "setting": "[5]", "result": 73, "unit": "mL/min/kg"},
      {"measurement": "AUC", "setting": "[6]", "result": 650, "unit": "ng·h/mL"}
    ]}
  ]
}
